Assay results published in patent US20100069458A1, “COMBINATION OF LBH589 WITH OTHER THERAPEUTIC AGENTS FOR TREATING CANCER” (priority 2007, published 2010).
Like-named read-outs stand apart in the source and are kept apart here.

Experiments:
MV4-11 cells [1] = assay: Cell cycle status, propidium iodide flow cytometry; format: cell-based, human; conditions: for % of cells G0/G1 / % of cells G2/M / % of cells S: MV4-11, 24 hours, mean ± S.E.M.
K562 cells [2] = assay: Cell cycle status, propidium iodide flow cytometry; format: cell-based, human; conditions: for % of cells G0/G1 / % of cells G2/M / % of cells S: K562, 24 hours, mean ± S.E.M.
U937 cells = assay: Apoptosis; format: cell-based, human; conditions: 20 to 50 nM, dose-dependently
[3] = test system: FLT-3, p-STAT5, AKT, CDK4, hsp70 levels in MV4-11 cells; assay: hsp90 client protein levels; format: cell-based, human; conditions: AUY922 alone
[4] = test system: Bcr-Abl, p-STAT5, p-CrkL, AKT levels in K562 cells; assay: hsp90 client protein levels; format: cell-based, human; conditions: 50-100 nM of AUY922
primary CML cells = assay: Loss of viability, trypan blue uptake; format: cell-based; conditions: Homo sapiens, 48 h
primary AML cells = assay: Loss of viability, trypan blue uptake; format: cell-based; conditions: Homo sapiens
[5] = Loss of viability, trypan blue uptake; format: cell-based; conditions: human, Normal CD34+ cells
K562 cells [6] = assay: Apoptosis; conditions: 50-100 nM
Description: FIG. 2 Analysis of dose effect relationship for AUY922 and LBH589 for the apoptotic effects after 48 hours of exposure was done according to the median effect of Chou and Talalay.

MV4-11 cells [7] = assay: Apoptosis, annexin V flow cytometry; conditions: 20 to 50 nM, dose-dependently, FIG. 1
Description: Following this, the percentages of annexin V-positive apoptotic cells were determined by flow cytometry. Values represent the mean±S.E.M. of three experiments.

[8] = test system: hsp90 chaperone function in CML cells; conditions: previous studies, cited from earlier work

## CCNC(=O)c1noc(-c2cc(C(C)C)c(O)cc2O)c1-c1ccc(CN2CCOCC2)cc1 [AUY922, 5-(2,4-Dihydroxy-5-isopropyl-phenyl)-4-(4-morpholin-4-ylmethyl-phenyl)-isoxazole-3-carboxylic acid ethylamide]
MV4-11 cells [1]; 5 nM
  % of cells G0/G1: 62.23 ± 0.33%
  % of cells G2/M: 6.02 ± 0.74%
  % of cells S: 31.74 ± 0.42%
MV4-11 cells [1]; 10 nM
  % of cells G0/G1: 63.54 ± 1.20%
  % of cells G2/M: 6.30 ± 0.92%
  % of cells S: 30.16 ± 0.39%
MV4-11 cells [1]; 20 nM
  % of cells G0/G1: 85.71 ± 2.14%
  % of cells G2/M: 5.30 ± 0.71%
  % of cells S: 8.98 ± 2.41%
MV4-11 cells [1]; 50 nM
  % of cells G0/G1: 79.57 ± 1.15%
  % of cells G2/M: 11.96 ± 1.26%
  % of cells S: 8.47 ± 2.30%
MV4-11 cells [1]; MV4-11 cells
  accumulation in G1 and G2/M phases, decline in S phase: dose-dependently induced accumulation
K562 cells [2]; 20 nM
  % of cells G0/G1: 31.04 ± 3.11%
  % of cells G2/M: 8.54 ± 1.16%
  % of cells S: 60.41 ± 2.01%
K562 cells [2]; 50 nM
  % of cells G0/G1: 61.42 ± 5.30%
  % of cells G2/M: 4.43 ± 2.78%
  % of cells S: 34.14 ± 5.01%
K562 cells [2]; 100 nM
  % of cells G0/G1: 58.30 ± 2.87%
  % of cells G2/M: 21.73 ± 2.67%
  % of cells S: 19.97 ± 0.31%
K562 cells [2]; 250 nM
  % of cells G0/G1: 58.10 ± 4.47%
  % of cells G2/M: 21.38 ± 3.07%
  % of cells S: 20.47 ± 1.54%
K562 cells [2]; K562 cells
  accumulation in G1 and G2/M phases, decline in S phase: dose-dependently induced accumulation
U937 cells
  induced apoptosis, % of cells: 40-60%
[3]
  client protein levels: depletion of FLT-3, p-STAT5, AKT, and CDK4 levels
  hsp70 levels: induction of hsp70 levels
[4]
  client protein levels: depleted Bcr-Abl, p-STAT, p-CrkL and AKT levels
Primary CML cells; CML#1, 20 nmol/L AUY922, read-out: % non-viable cells
  cytotoxicity at 0.02 µM: 29.1%
Primary CML cells; CML#1, 50 nmol/L AUY922, read-out: % non-viable cells
  cytotoxicity at 0.05 µM: 33.6%
Primary CML cells; CML#2, 20 nmol/L AUY922, read-out: % non-viable cells
  cytotoxicity at 0.02 µM: 9.6%
Primary CML cells; CML#2, 50 nmol/L AUY922, read-out: % non-viable cells
  cytotoxicity at 0.05 µM: 13.9%
Primary CML cells; CML#3, 20 nmol/L AUY922, read-out: % non-viable cells
  cytotoxicity at 0.02 µM: 21.1%
Primary CML cells; CML#3, 50 nmol/L AUY922, read-out: % non-viable cells
  cytotoxicity at 0.05 µM: 25.3%
Primary CML cells; CML#4, 20 nmol/L AUY922, read-out: % non-viable cells
  cytotoxicity at 0.02 µM: 30.5%
Primary CML cells; CML#4, 50 nmol/L AUY922, read-out: % non-viable cells
  cytotoxicity at 0.05 µM: 32.8%
Primary AML cells; 48 h, AML#2, 20 nmol/L AUY922, read-out: % non-viable cells
  cytotoxicity at 0.02 µM: 54%
Primary AML cells; 48 h, AML#2, 50 nmol/L AUY922, read-out: % non-viable cells
  cytotoxicity at 0.05 µM: 58.9%
Primary AML cells; 48 h, AML#4, 20 nmol/L AUY922, read-out: % non-viable cells
  cytotoxicity at 0.02 µM: 43.2%
Primary AML cells; 48 h, AML#4, 50 nmol/L AUY922, read-out: % non-viable cells
  cytotoxicity at 0.05 µM: 50%
Primary AML cells; 48 h, AML#5, 20 nmol/L AUY922, read-out: % non-viable cells
  cytotoxicity at 0.02 µM: 32.1%
Primary AML cells; 48 h, AML#5, 50 nmol/L AUY922, read-out: % non-viable cells
  cytotoxicity at 0.05 µM: 27.7%
Primary AML cells; 48 h, AML#6, 20 nmol/L AUY922, read-out: % non-viable cells
  cytotoxicity at 0.02 µM: 11.9%
Primary AML cells; 48 h, AML#6, 50 nmol/L AUY922, read-out: % non-viable cells
  cytotoxicity at 0.05 µM: 21.4%
Primary AML cells; 48 h, AML#7 CD34 enriched, 20 nmol/L AUY922, read-out: % non-viable cells
  cytotoxicity at 0.02 µM: 70.1%
Primary AML cells; 48 h, AML#7 CD34 enriched, 50 nmol/L AUY922, read-out: % non-viable cells
  cytotoxicity at 0.05 µM: 70.9%
Primary AML cells; AML1, 48 h, AML#1, 20 nmol/L AUY922, read-out: % non-viable cells
  cytotoxicity at 0.02 µM: 38.8%
Primary AML cells; AML1, 48 h, AML#1, 50 nmol/L AUY922, read-out: % non-viable cells
  cytotoxicity at 0.05 µM: 45.1%
Primary AML cells; AML3, 48 h, AML#3, 20 nmol/L AUY922, read-out: % non-viable cells
  cytotoxicity at 0.02 µM: 40.1%
Primary AML cells; AML3, 48 h, AML#3, 50 nmol/L AUY922, read-out: % non-viable cells
  cytotoxicity at 0.05 µM: 42.7%
[5]; 20 nmol/L AUY922, read-out: % non-viable cells
  cytotoxicity at 48 h, 20 nmol/L: 30.8%
[5]; 50 nmol/L AUY922, read-out: % non-viable cells
  cytotoxicity at 48 h, 50 nmol/L: 31.6%
K562 cells [6]
  induced apoptosis, % of cells: 30-50%
MV4-11 cells [7]
  induced apoptosis, % of cells: 40-60%

## Cc1[nH]c2ccccc2c1CCNCc1ccc(/C=C/C(=O)NO)cc1 [LBH589, N-hydroxy-3-[4-[[[2-(2-methyl-1H-indol-3-yl)-ethyl]-amino]methyl]phenyl]-2E-2-propenamide]
Primary CML cells; CML#1, 50 nmol/L LBH589, read-out: % non-viable cells
  cytotoxicity at 0.05 µM: 43.3%
Primary CML cells; CML#2, 50 nmol/L LBH589, read-out: % non-viable cells
  cytotoxicity at 0.05 µM: 21.4%
Primary CML cells; CML#3, 50 nmol/L LBH589, read-out: % non-viable cells
  cytotoxicity at 0.05 µM: 47.8%
Primary CML cells; CML#4, 50 nmol/L LBH589, read-out: % non-viable cells
  cytotoxicity at 0.05 µM: 37.6%
Primary AML cells; 48 h, AML#2, 50 nmol/L LBH589, read-out: % non-viable cells
  cytotoxicity at 0.05 µM: 54.7%
Primary AML cells; 48 h, AML#4, 50 nmol/L LBH589, read-out: % non-viable cells
  cytotoxicity at 0.05 µM: 53.8%
Primary AML cells; 48 h, AML#5, 50 nmol/L LBH589, read-out: % non-viable cells
  cytotoxicity at 0.05 µM: 61.8%
Primary AML cells; 48 h, AML#6, 50 nmol/L LBH589, read-out: % non-viable cells
  cytotoxicity at 0.05 µM: 17.8%
Primary AML cells; 48 h, AML#7 CD34 enriched, 50 nmol/L LBH589, read-out: % non-viable cells
  cytotoxicity at 0.05 µM: 56.7%
Primary AML cells; AML1, 48 h, AML#1, 50 nmol/L LBH589, read-out: % non-viable cells
  cytotoxicity at 0.05 µM: 80.7%
Primary AML cells; AML3, 48 h, AML#3, 50 nmol/L LBH589, read-out: % non-viable cells
  cytotoxicity at 0.05 µM: 46.3%
[5]; 50 nmol/L LBH589, read-out: % non-viable cells
  cytotoxicity at 48 h, 50 nmol/L: 23.3%
[8]; CML cells
  client protein levels: depletion of unmutated or mutant forms of Bcr-Abl, as well as of c-Raf and AKT
[8]; by inhibiting HDAC 6
  hsp90 acetylation and chaperone function: induces acetylation and inhibition of hsp90 chaperone function
